Assay results from ChEMBL document CHEMBL2417492, “Structural studies of β-hairpin peptidomimetic antibiotics that target LptD in Pseudomonas sp” (2013).
Values after ≈ are worked out from the molar mass of the structure shown.

Tested on: Pseudomonas aeruginosa
Assay: Antibacterial activity against Pseudomonas aeruginosa ATCC 27853 assessed as growth inhibition
Format: functional

Row | Structure (SMILES) | MIC
1 | CC(C)C[C@@H]1NC(=O)[C@H](CCCNC(=N)N)NC(=O)[C@H](CCCNC(=N)N)NC(=O)[C@H](CCCCN)NC(=O)[C@H](CCCCN)NC(=O)[C@H](CC(C)C)NC(=O)[C@H](Cc2c[nH]c3ccccc23)NC(=O)[C@H]([C@@H](C)O)NC(=O)[C@@H]2CCCN2C(=O)[C@H]2CCCN2C(=O)[C@H](CCCCN)NC(=O)[C@H](C)NC(=O)[C@H](CCCCN)NC(=O)[C@H](CCCCN)NC1=O | 0.1 µg/mL (≈ 0.0577 µM)
2 | CC(C)C[C@@H]1NC(=O)[C@H](Cc2c[nH]c3ccccc23)NC(=O)[C@H]([C@@H](C)O)NC(=O)[C@@H]2CCCN2C(=O)[C@H]2CCCN2C(=O)[C@H](CCCCN)NC(=O)[C@H](C)NC(=O)[C@H](CCCCN)NC(=O)[C@H](CCCCN)NC(=O)[C@H](Cc2ccc(O)cc2)NC(=O)[C@H](CCCNC(=N)N)NC(=O)[C@H](CCCNC(=N)N)NC(=O)[C@H](CCCCN)NC(=O)[C@H](CCCCN)NC1=O | 0.3 µg/mL (≈ 0.168 µM)
3 | CC(C)C[C@@H]1NC(=O)[C@H](Cc2c[nH]c3ccccc23)NC(=O)[C@H]([C@@H](C)O)NC(=O)[C@@H]2CCCN2C(=O)[C@H]2CCCN2C(=O)[C@H](CCCCN)NC(=O)[C@H](C)NC(=O)[C@H](CCCCN)NC(=O)[C@H](CCCCN)NC(=O)[C@H](Cc2ccccc2)NC(=O)[C@H](CCCNC(=N)N)NC(=O)[C@H](CCCNC(=N)N)NC(=O)[C@H](CCCCN)NC(=O)[C@H](CCCCN)NC1=O | 0.1 µg/mL (≈ 0.0566 µM)
4 | CC(C)C[C@@H]1NC(=O)[C@H](CC(C)C)NC(=O)[C@H]([C@@H](C)O)NC(=O)[C@@H]2CCCN2C(=O)[C@H]2CCCN2C(=O)[C@H](CCCCN)NC(=O)[C@H](C)NC(=O)[C@H](CCCCN)NC(=O)[C@H](CCCCN)NC(=O)[C@H](Cc2c[nH]c3ccccc23)NC(=O)[C@H](CCCNC(=N)N)NC(=O)[C@H](CCCNC(=N)N)NC(=O)[C@H](CCCCN)NC(=O)[C@H](CCCCN)NC1=O | 1 µg/mL (≈ 0.577 µM)
5 | CC(C)C[C@@H]1NC(=O)[C@H](Cc2ccc(O)cc2)NC(=O)[C@H]([C@@H](C)O)NC(=O)[C@@H]2CCCN2C(=O)[C@H]2CCCN2C(=O)[C@H](CCCCN)NC(=O)[C@H](C)NC(=O)[C@H](CCCCN)NC(=O)[C@H](CCCCN)NC(=O)[C@H](Cc2c[nH]c3ccccc23)NC(=O)[C@H](CCCNC(=N)N)NC(=O)[C@H](CCCNC(=N)N)NC(=O)[C@H](CCCCN)NC(=O)[C@H](CCCCN)NC1=O | 0.06 µg/mL (≈ 0.0337 µM)
6 | CC(C)C[C@@H]1NC(=O)[C@H](Cc2ccccc2)NC(=O)[C@H]([C@@H](C)O)NC(=O)[C@@H]2CCCN2C(=O)[C@H]2CCCN2C(=O)[C@H](CCCCN)NC(=O)[C@H](C)NC(=O)[C@H](CCCCN)NC(=O)[C@H](CCCCN)NC(=O)[C@H](Cc2c[nH]c3ccccc23)NC(=O)[C@H](CCCNC(=N)N)NC(=O)[C@H](CCCNC(=N)N)NC(=O)[C@H](CCCCN)NC(=O)[C@H](CCCCN)NC1=O | 0.06 µg/mL (≈ 0.034 µM)
7 | CC(C)C[C@@H]1NC(=O)[C@H](Cc2c[nH]c3ccccc23)NC(=O)[C@H]([C@@H](C)O)NC(=O)[C@@H]2CCCN2C(=O)[C@H]2CCCN2C(=O)[C@H](C)NC(=O)[C@H](C)NC(=O)[C@H](CCCCN)NC(=O)[C@H](CCCCN)NC(=O)[C@H](Cc2c[nH]c3ccccc23)NC(=O)[C@H](CCCNC(=N)N)NC(=O)[C@H](CCCNC(=N)N)NC(=O)[C@H](CCCCN)NC(=O)[C@H](CCCCN)NC1=O | 0.03 µg/mL (≈ 0.0172 µM)
8 | CC(C)C[C@@H]1NC(=O)[C@H](Cc2c[nH]c3ccccc23)NC(=O)[C@H]([C@@H](C)O)NC(=O)[C@@H]2CCCN2C(=O)[C@H]2CCCN2C(=O)[C@H](CCCCN)NC(=O)[C@H](C)NC(=O)[C@H](C)NC(=O)[C@H](CCCCN)NC(=O)[C@H](Cc2c[nH]c3ccccc23)NC(=O)[C@H](CCCNC(=N)N)NC(=O)[C@H](CCCNC(=N)N)NC(=O)[C@H](CCCCN)NC(=O)[C@H](CCCCN)NC1=O | 0.06 µg/mL (≈ 0.0343 µM)
9 | CC(C)C[C@@H]1NC(=O)[C@H](Cc2c[nH]c3ccccc23)NC(=O)[C@H]([C@@H](C)O)NC(=O)[C@@H]2CCCN2C(=O)[C@H]2CCCN2C(=O)[C@H](CCCCN)NC(=O)[C@H](C)NC(=O)[C@H](CCCCN)NC(=O)[C@H](C)NC(=O)[C@H](Cc2c[nH]c3ccccc23)NC(=O)[C@H](CCCNC(=N)N)NC(=O)[C@H](CCCNC(=N)N)NC(=O)[C@H](CCCCN)NC(=O)[C@H](CCCCN)NC1=O | 0.06 µg/mL (≈ 0.0343 µM)
10 | CC(C)C[C@@H]1NC(=O)[C@H](Cc2c[nH]c3ccccc23)NC(=O)[C@H]([C@@H](C)O)NC(=O)[C@@H]2CCCN2C(=O)[C@H]2CCCN2C(=O)[C@H](CCCCN)NC(=O)[C@H](C)NC(=O)[C@H](CCCCN)NC(=O)[C@H](CCCCN)NC(=O)[C@H](C)NC(=O)[C@H](CCCNC(=N)N)NC(=O)[C@H](CCCNC(=N)N)NC(=O)[C@H](CCCCN)NC(=O)[C@H](CCCCN)NC1=O | > 16 µg/mL
11 | CC(C)C[C@@H]1NC(=O)[C@H](Cc2c[nH]c3ccccc23)NC(=O)[C@H]([C@@H](C)O)NC(=O)[C@@H]2CCCN2C(=O)[C@H]2CCCN2C(=O)[C@H](CCCCN)NC(=O)[C@H](C)NC(=O)[C@H](CCCCN)NC(=O)[C@H](CCCCN)NC(=O)[C@H](Cc2c[nH]c3ccccc23)NC(=O)[C@H](C)NC(=O)[C@H](CCCNC(=N)N)NC(=O)[C@H](CCCCN)NC(=O)[C@H](CCCCN)NC1=O | 0.06 µg/mL (≈ 0.0349 µM)
12 | CC(C)C[C@@H]1NC(=O)[C@H](Cc2c[nH]c3ccccc23)NC(=O)[C@H]([C@@H](C)O)NC(=O)[C@@H]2CCCN2C(=O)[C@H]2CCCN2C(=O)[C@H](CCCCN)NC(=O)[C@H](C)NC(=O)[C@H](CCCCN)NC(=O)[C@H](CCCCN)NC(=O)[C@H](Cc2c[nH]c3ccccc23)NC(=O)[C@H](CCCNC(=N)N)NC(=O)[C@H](C)NC(=O)[C@H](CCCCN)NC(=O)[C@H](CCCCN)NC1=O | 0.03 µg/mL (≈ 0.0174 µM)
13 | CC(C)C[C@@H]1NC(=O)[C@H](Cc2c[nH]c3ccccc23)NC(=O)[C@H]([C@@H](C)O)NC(=O)[C@@H]2CCCN2C(=O)[C@H]2CCCN2C(=O)[C@H](CCCCN)NC(=O)[C@H](C)NC(=O)[C@H](CCCCN)NC(=O)[C@H](CCCCN)NC(=O)[C@H](Cc2c[nH]c3ccccc23)NC(=O)[C@H](CCCNC(=N)N)NC(=O)[C@H](CCCNC(=N)N)NC(=O)[C@H](C)NC(=O)[C@H](CCCCN)NC1=O | 0.1 µg/mL (≈ 0.0572 µM)
14 | CC(C)C[C@@H]1NC(=O)[C@H](Cc2c[nH]c3ccccc23)NC(=O)[C@H]([C@@H](C)O)NC(=O)[C@@H]2CCCN2C(=O)[C@H]2CCCN2C(=O)[C@H](CCCCN)NC(=O)[C@H](C)NC(=O)[C@H](CCCCN)NC(=O)[C@H](CCCCN)NC(=O)[C@H](Cc2c[nH]c3ccccc23)NC(=O)[C@H](CCCNC(=N)N)NC(=O)[C@H](CCCNC(=N)N)NC(=O)[C@H](CCCCN)NC(=O)[C@H](C)NC1=O | 0.05 µg/mL (≈ 0.0286 µM)
15 | C[C@@H]1NC(=O)[C@H](CCCCN)NC(=O)[C@H](CCCCN)NC(=O)[C@H](Cc2c[nH]c3ccccc23)NC(=O)[C@H](CCCNC(=N)N)NC(=O)[C@H](CCCNC(=N)N)NC(=O)[C@H](CCCCN)NC(=O)[C@H](CCCCN)NC(=O)[C@H](C)NC(=O)[C@H](Cc2c[nH]c3ccccc23)NC(=O)[C@H]([C@@H](C)O)NC(=O)[C@@H]2CCCN2C(=O)[C@H]2CCCN2C(=O)[C@H](CCCCN)NC1=O | 0.1 µg/mL (≈ 0.0567 µM)
16 | CC(C)C[C@@H]1NC(=O)[C@H](C)NC(=O)[C@H]([C@@H](C)O)NC(=O)[C@@H]2CCCN2C(=O)[C@H]2CCCN2C(=O)[C@H](CCCCN)NC(=O)[C@H](C)NC(=O)[C@H](CCCCN)NC(=O)[C@H](CCCCN)NC(=O)[C@H](Cc2c[nH]c3ccccc23)NC(=O)[C@H](CCCNC(=N)N)NC(=O)[C@H](CCCNC(=N)N)NC(=O)[C@H](CCCCN)NC(=O)[C@H](CCCCN)NC1=O | > 16 µg/mL
17 | CC(C)C[C@@H]1NC(=O)[C@H](Cc2c[nH]c3ccccc23)NC(=O)[C@H](C)NC(=O)[C@@H]2CCCN2C(=O)[C@H]2CCCN2C(=O)[C@H](CCCCN)NC(=O)[C@H](C)NC(=O)[C@H](CCCCN)NC(=O)[C@H](CCCCN)NC(=O)[C@H](Cc2c[nH]c3ccccc23)NC(=O)[C@H](CCCNC(=N)N)NC(=O)[C@H](CCCNC(=N)N)NC(=O)[C@H](CCCCN)NC(=O)[C@H](CCCCN)NC1=O | 0.01 µg/mL (≈ 0.00563 µM)
18 | CC(C)C[C@@H]1NC(=O)[C@H](Cc2c[nH]c3ccccc23)NC(=O)[C@H]([C@@H](C)O)NC(=O)[C@H]2CCCN2C(=O)[C@@H]2CCCN2C(=O)[C@H](CCCCN)NC(=O)[C@H](C)NC(=O)[C@H](CCN)NC(=O)[C@H](CCCN)NC(=O)[C@H](Cc2c[nH]c3ccccc23)NC(=O)[C@H](CCCNC(=N)N)NC(=O)[C@@H](CCCCN)NC(=O)[C@H](CCCN)NC(=O)[C@H](CCN)NC1=O | ≥ 32 µg/mL
19 | CC(C)C[C@@H]1NC(=O)[C@H](Cc2c[nH]c3ccccc23)NC(=O)[C@H]([C@@H](C)O)NC(=O)[C@@H]2CCCN2C(=O)[C@H]2CCCN2C(=O)[C@H](CCCCN)NC(=O)[C@H](C)NC(=O)[C@H](CCN)NC(=O)[C@H](CCCN)NC(=O)[C@H](Cc2c[nH]c3ccccc23)NC(=O)[C@H](CCCNC(=N)N)NC(=O)[C@@H](CCCCN)NC(=O)[C@H](CCCN)NC(=O)[C@H](CCN)NC1=O | 0.01 µg/mL (≈ 0.00591 µM)
20 | CC(C)C[C@@H]1NC(=O)[C@H](Cc2c[nH]c3ccccc23)NC(=O)[C@H]([C@@H](C)O)NC(=O)[C@@H]2CCCN2C(=O)[C@H]2CCCN2C(=O)[C@H](CCCCN)NC(=O)[C@H](C)NC(=O)[C@H](CCCCN)NC(=O)[C@H](CCCCN)NC(=O)[C@H](Cc2c[nH]c3ccccc23)NC(=O)[C@H](CCCNC(=N)N)NC(=O)[C@H](CCCNC(=N)N)NC(=O)[C@H](CCCCN)NC(=O)[C@H](CCCCN)NC1=O | 0.01 µg/mL (≈ 0.00554 µM)
